Patent US7211685B2, “Calcium receptor antagonists” (Japan Tobacco Inc., priority 2000, dated 2007)
Structures can show the parent of a compound that is named as a salt.

Key:
[1] = target: T1, human calcium receptor (Homo sapiens, UniProt P41180); experiment: Evaluation of antagonistic action on calcium receptor using reporter gene (luciferase); format: cell-based
T1 construct: expressed in transfected cells; host or cells: cell strain derived from rat adrenal
T1 sequence (P41180 20-1078): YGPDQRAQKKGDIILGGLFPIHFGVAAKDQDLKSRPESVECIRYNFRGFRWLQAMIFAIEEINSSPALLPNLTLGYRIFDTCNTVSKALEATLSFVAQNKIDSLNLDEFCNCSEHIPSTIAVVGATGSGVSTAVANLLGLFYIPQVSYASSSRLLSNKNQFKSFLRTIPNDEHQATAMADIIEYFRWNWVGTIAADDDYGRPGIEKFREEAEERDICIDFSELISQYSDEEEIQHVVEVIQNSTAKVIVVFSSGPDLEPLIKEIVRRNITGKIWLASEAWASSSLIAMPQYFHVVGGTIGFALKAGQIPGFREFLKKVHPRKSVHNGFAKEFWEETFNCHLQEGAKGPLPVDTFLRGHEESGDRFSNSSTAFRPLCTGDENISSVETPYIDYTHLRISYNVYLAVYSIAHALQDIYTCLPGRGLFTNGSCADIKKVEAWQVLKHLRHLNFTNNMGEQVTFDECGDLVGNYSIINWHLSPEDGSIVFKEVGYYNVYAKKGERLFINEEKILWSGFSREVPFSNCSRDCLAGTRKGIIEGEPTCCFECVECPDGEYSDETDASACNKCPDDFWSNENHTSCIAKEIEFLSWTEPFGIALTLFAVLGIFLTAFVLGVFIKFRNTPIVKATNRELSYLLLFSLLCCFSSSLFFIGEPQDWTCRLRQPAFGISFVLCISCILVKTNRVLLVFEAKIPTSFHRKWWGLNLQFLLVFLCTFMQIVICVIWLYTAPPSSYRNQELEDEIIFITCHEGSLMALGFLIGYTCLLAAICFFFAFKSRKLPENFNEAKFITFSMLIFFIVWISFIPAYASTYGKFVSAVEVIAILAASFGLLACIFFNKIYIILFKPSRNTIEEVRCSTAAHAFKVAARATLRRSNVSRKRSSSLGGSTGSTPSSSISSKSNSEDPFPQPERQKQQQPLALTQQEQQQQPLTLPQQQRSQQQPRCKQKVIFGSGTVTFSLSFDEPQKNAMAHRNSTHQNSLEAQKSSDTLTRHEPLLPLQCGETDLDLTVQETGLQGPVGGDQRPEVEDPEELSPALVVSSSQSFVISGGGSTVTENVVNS
Protocol: Evaluation of Antagonistic Action on Calcium Receptor Using Reporter Gene
Luciferase cDNA and human calcium receptor cDNA were transfected into a cell strain derived from rat adrenal and the transformed cells were cultured overnight in a medium (F12 medium containing 0.5% dialyzed horse serum and 0.25% dialyzed bovine fetal serum). The next day, a dimethyl sulfoxide solution containing a test compound at 0.01–100 mM was diluted 100-fold with the medium and added to the test compound group at 10 μl per well. A medium containing 50 mM calcium chloride was added to the control group at 10 μl per well, such that the final calcium concentration of the medium became 5 mM. A medium alone was added to the blank group. After culture for 4 hr, luciferase substrate (PicaGene LT-2.0, TOYO INK) was added and the luciferase activity was measured with a photoluminometer. The inhibitory rate (%) was calculated from the obtained measured values according to the following formula.
Based on the results, the concentration (IC50) showing 50% inhibitory rate was determined.

[2] = test system: PTH secretion; experiment: PTH secretion promoting action, oral administration to male SD rats, serum PTH by rat PTH (1-84) ELISA; format: in vivo; settings: for serum PTH concentration, 30 min later / serum PTH concentration, 240 min later / serum PTH concentration, 120 min later: male SD rats, oral, mean ± S.E.
Protocol: PTH Secretion Promoting Action
The test compound was orally administered to 6 to 9-week-old male SD rats (Charles River Japan, Inc.) fasted for 20 hr, using a solvent (5% ethanol, 0.5% aqueous methyl cellulose solution) at a dose of 30 mg/5 ml/kg and 100 mg/5 ml/kg. A solvent alone was orally administered to the control group at a dose of 5 ml/kg. The blood was drawn from the tail vein immediately before and 0.5, 1, 2, 4, 6 hr after the administration of the test compound, and sera were obtained. The serum PTH concentration was measured using rat PTH (1-84) ELISA kit (Nohon Medi-Physics). The results of the serum PTH concentration before and 30 min and 4 hr after the administration of the test compound are shown in Table 24, and the results of the serum PTH concentration before and 30 min and 2 hr after the administration of the test compound of the 30 mg/5 ml/kg administration group are shown in Table 25.
In FIG. 1, FIG. 2 and FIG. 3, the time-course changes of the serum PTH concentration at the dose (30 mg/kg) of Example 22, Example 23 and Example 24 are shown.

[3] = 100 mg/kg administration group (lower line)
[4] = Table 25, 30 mg/5 ml/kg administration group

`COc1ccccc1[C@@H](C)OC[C@H](O)CNC(C)(C)Cc1ccc2ccccc2c1` [Example 22, (2R)-1-[1,1-Dimethyl-2-(naphthalen-2-yl)ethylamino]-3-[(1R)-1-(2-methoxyphenyl)ethoxy]propan-2-ol hydrochloride] showed an IC50 ([1]; Table 24, final calcium 5 mM) of 59 nM.

In the case of `CC(C)(Cc1ccc2ccccc2c1)NC[C@@H](O)COCc1ccccc1` [Comparative Example 1, reference compound], the IC50 ([1]; Table 24, final calcium 5 mM) is reported as 560 nM, the “serum PTH concentration, 30 min later” value [2, 3] is reported as 139.0 ± 18.8 pg/mL and the “serum PTH concentration, 240 min later” value [2, 3] is reported as 78.9 ± 12.3 pg/mL. For the same molecule, the “blood PTH concentration at 30 min relative to that before administration” value ([2]; 100 mg/kg, 30 min after administration) was 1.3 times.

For `COc1ccc(CC(C)(C)NC[C@@H](O)CO[C@@H](c2ccccc2C)C2CC2)cc1C` [Example 95], the IC50 ([1]; Table 25, final calcium 5 mM) was 29 nM, the “serum PTH concentration, 30 min later” value [2, 4] was 199.1 ± 25.8 pg/mL and the “serum PTH concentration, 120 min later” value [2, 4] was 80.4 ± 9.6 pg/mL.

For `Cc1ccc(CC(C)(C)NC[C@@H](O)CO[C@@H](c2ccccc2C)C2CC2)cc1C` [Example 111], the IC50 ([1]; Table 25, final calcium 5 mM) was 24 nM, the “serum PTH concentration, 30 min later” value [2, 4] was 236.3 ± 60.8 pg/mL and the “serum PTH concentration, 120 min later” value [2, 4] was 65.3 ± 6.4 pg/mL.

For `Cc1ccccc1C(OC[C@H](O)CNC(C)(C)Cc1ccc2ccccc2c1)C1CC1` (stereo partly drawn) [Example 2, (2R)-1-[1,1-Dimethyl-2-(naphthalen-2-yl)ethylamino]-3-[(cyclopropyl) (2-methylphenyl)methoxy]propan-2-ol], the IC50 ([1]; Table 24, final calcium 5 mM) was 27 nM, the “serum PTH concentration, 30 min later” value [2, 3] was 154.8 ± 17.1 pg/mL and the “serum PTH concentration, 240 min later” value [2, 3] was 85.8 ± 17.3 pg/mL.

For `Cc1ccsc1C(OC[C@H](O)CNC(C)(C)Cc1ccc2ccccc2c1)C1CC1` (some centres unmarked) [Example 100], the IC50 ([1]; Table 25, final calcium 5 mM) was 67 nM, the “serum PTH concentration, 30 min later” value [2, 4] was 130.1 ± 53.7 pg/mL and the “serum PTH concentration, 120 min later” value [2, 4] was 49.3 ± 4.4 pg/mL.

`COc1ccc(CC(C)(C)NC[C@@H](O)CO[C@@H](c2ccccc2C)C2CC2)cc1C` [Example 127] was tested, and the IC50 ([1]; Table 25, final calcium 5 mM) was 133 nM, the “serum PTH concentration, 30 min later” value [2, 4] was 265.3 ± 22.3 pg/mL and the “serum PTH concentration, 120 min later” value [2, 4] was 75.2 ± 7.3 pg/mL.

In the case of `COc1ccccc1C(OC[C@H](O)CNC(C)(C)Cc1ccc2ccccc2c1)C1CC1` (stereo partly drawn) [Example 1, (2R)-1-[1,1-Dimethyl-2-(naphthalen-2-yl)ethylamino]-3-[(cyclopropyl)(2-methoxyphenyl)methoxy]propan-2-ol], the IC50 ([1]; Table 24, final calcium 5 mM) is reported as 41 nM, the “serum PTH concentration, 30 min later” value [2, 3] is reported as 160.0 ± 13.8 pg/mL and the “serum PTH concentration, 240 min later” value [2, 3] is reported as 58.3 ± 7.3 pg/mL.

For `CC(C)(Cc1ccc2ccccc2c1)NC[C@@H](O)COC(c1cccc(C#N)c1)C1CC1` (some centres unmarked) [Example 105], the IC50 ([1]; Table 25, final calcium 5 mM) was 49 nM, the “serum PTH concentration, 30 min later” value [2, 4] was 115.4 ± 20.0 pg/mL and the “serum PTH concentration, 120 min later” value [2, 4] was 74.3 ± 12.1 pg/mL.

In the case of `CC(C)(Cc1ccc2ccccc2c1)NC[C@@H](O)COC(c1cccc(C(N)=O)c1)C1CC1` (some centres unmarked) [Example 80], the IC50 ([1]; Table 25, final calcium 5 mM) is reported as 64 nM, the “serum PTH concentration, 30 min later” value [2, 4] is reported as 156.6 ± 15.3 pg/mL and the “serum PTH concentration, 120 min later” value [2, 4] is reported as 76.1 ± 12.6 pg/mL.

`COc1ccccc1[C@H](OC[C@H](O)CNC(C)(C)Cc1ccc2ccccc2c1)C1CC1` [Example 24, (2R)-1-[1,1-Dimethyl-2-(naphthalen-2-yl)ethylamino]-3-[(1R)-(cyclopropyl)(2-methoxyphenyl)methoxy]propan-2-ol] gave an IC50 ([1]; Table 24, final calcium 5 mM) of 22 nM.

For `COc1ccccc1C(C)OC[C@H](O)CNC(C)(C)Cc1ccc2ccccc2c1` (stereo partly drawn) [Example 5, (2R)-1-[1,1-Dimethyl-2-(naphthalen-2-yl)ethylamino]-3-[1-(2-methoxyphenyl)ethoxy]propan-2-ol hydrochloride], the IC50 ([1]; Table 24, final calcium 5 mM) was 70 nM.

`Cc1ccccc1[C@H](OC[C@H](O)CNC(C)(C)Cc1ccc2ccccc2c1)C1CC1` [Example 23, (2R)-1-[1,1-Dimethyl-2-(naphthalen-2-yl)ethylamino]-3-[(1R)-(cyclopropyl)(2-methylphenyl)methoxy]propan-2-ol] showed an IC50 ([1]; Table 24, final calcium 5 mM) of 27 nM.
